The values below come from US6620587B1, “Ribosome complexes as selection particles for in vitro display and evolution of proteins” (Discerna Limited, priority 1997, dated 2003).

This experiment concerns the target DB3 VH/K expressed as an ARM. Kind of experiment: Inhibition by free steroids of DB3 VH/K ARM binding to progesterone-coated beads. More on the design: species or system mouse. Particulars: free steroid added to DB3 ARM mixture. As for the experimental part: FIG. 6. […] This supports the correct folding of the antibody fragment on the ribosome.
The free steroid inibitors were added to the DB3 ARM mixture in order to block binding to the progesterone-coated beads. They are progesterone-11α-hemisuccinate (HMS) (P11), progesterone-3-carboxymethyloxime (P3); progesterone-6-HMS (P6) and progesterone-21-HMS (P21). The inhibition of free DB3 VH/K in an ELISA reaction is shown on the right, with the efficiency of the steroids in the order P11>P3>P6>P21.

For `CC(=O)[C@H]1CC[C@H]2[C@@H]3CCC4=CC(=O)CC[C@]4(C)[C@H]3[C@H](OC(=O)CCC(=O)O)C[C@]12C` [progesterone-11α-HMS, progesterone-11α-hemisuccinate], the “50% inhibition of DB3 VH/K ARM binding” value worked out at 1 ng. The IC50 (read-out: 50% inhibition of DB3 VH/K ARM binding) came to 2.5 nM.
